One sequence from US8951527B2, “Radioprotectants targeting thrombospondin-1 and CD47” (The United States of America, as represented by the …, priority 2008, dated 2015) can be followed below.

One series deals with B16F10 melanoma cells. In words: B16F10 melanoma cell viability after irradiation in vitro. The format is cell-based, mouse. The following applies: 7N3 1 hour or morpholino 48 hours before 10 Gy, versus untreated cells. The procedure:
FIG. 19. CD47 suppression enhances re-growth delay in irradiated syngeneic B16 melanoma and squamous cell carcinoma tumors but increases radioresistance of B16 cells in vitro. C57BL/6 mice were injected with 1×10^6 B16 mouse melanoma cells into their right hindlimbs. Five days later, the mice were randomized into 4 groups (12 mice in each group) where they either received injections of CD47 morpholino (10 μM) in sterile PBS, PBS, or no injection. The two groups receiving injections were then subjected to radiation (10 Gy) to the effected hindlimb 48 hours later. The other two groups served as controls and consisted of tumor alone or tumor subjected to only the morpholino. Tumors were followed post-radiation for 30 days, measuring their volume every 6 days (FIG. 19A). […] Cell (mitochondrial) viability was measured 48 hours post radiation using the MTT assay.
Cell Viability Assay. […] Cell viability was determined using the CellTiter 96 Aqueous One Solution cell proliferation assay (Promega, Madison, Wis.) as per the manufacturer's instructions and absorbance at 490 nm was determined using an MR580 Microelisa AutoReader (Dynatech, Alexandria, Va.). […]
Irradiation of cells. […] The dose rate at 50 cm from the x-ray source was 242 cGy/minute, as determined by multiple thermo luminescent dosimeter readings.

The test system of a further series is B16 melanoma tumors. In words: Histology, TUNEL and CD68 staining of irradiated B16 tumors. The format is in vivo, mouse. The following applies: morpholino 48 hours before 10 Gy, 24 hours post-radiation. The procedure: FIG. 21. Increased fibrotic response, viable immune reaction, and macrophage infiltration is seen in tumors with suppressed CD47 expression. C57BL/6 mice were injected with 1×10^6 B16 mouse melanoma cells into their hind limbs. Treatment consisted of two groups where the hind limbs were treated with either 150 μl of PBS or 150 μl of CD47 morpholino (10 μM) 48 hours prior to radiation (10 Gy). The control group consisted of just tumor without radiation. 24 hours post-radiation the mice were sacrificed, and their hindlimbs were prepared in paraffin embedded tissue sections for analysis. The top panels represent hind limbs and tumors in each group stained by standard H&E protocol (FIG. 21A). […] Positive (apoptotic) cells are indicated by brown nuclear staining (FIG. 21B). […] Dark staining within the tumor indicates macrophage infiltration. Images were acquired using either a 4× or 10× objective.
Immunohistochemical Evaluation: Staining for the macrophage marker CD68 was done as previously described (Manso et al., Cancer Res 68:7090-7099, 2008) utilizing a rat anti-mouse CD68 antibody (AbD Serotec, Raleigh, N.C.). H&E staining of tissue hind limbs was prepared by American HistoLabs, Gaithersburg, Md.
Tissue Apoptosis: The ApopTag in situ detection kit (Chemicon, Millipore, Mass.) was used as described in Example 1. Additionally, animals were injected with 1×10^6 B16 melanoma cells and treated with either CD47 morpholino or sterile PBS as previously described. Mice were sacrificed 24 hours post irradiation (10 Gy), and hind limbs were embedded in paraffin blocks. Tissue sections incorporating the entire hind limb were examined for apoptosis employing 3′-hydroxy DNA strand breaks enzymatically labeled with digoxygenin nucleotide via TdT. Positive and negative control slides provided with the kit are used in each assay to ensure consistency.

Regarding “CGTCACAGGCAGGACCCACTGCCCA (all phosphorodiamidate morpholino (PMO)) [CD47 morpholino, CD47 targeting morpholino oligonucleotide]”, the “cell viability after 10 Gy” value in the series on B16F10 melanoma cells is on record as “mild radioprotective effect”. In addition, in the series with B16 melanoma tumors, the “H&E of irradiated tumors (fibrosis, necrosis)” value was “greater fibrosis and necrotic response”; the “apoptotic cells associated with the tumor (TUNEL)” value is on record as “minimal numbers of apoptotic cells”; the “macrophage marker CD68 staining of tumors” value is “positive staining in the periphery”.
